Assay results: US20040146520A1, “Materials and methods relating to immune suppression” (priority 2001, published 2004)
Where a SMILES comes first, the peptide text is derived from it. The star is where a group is joined. Cbz = O=C(OCc1ccccc1)*; CH2F = FC*

Tests used:
CD8-associated p56lck = CD8-associated p56lck (Homo sapiens, UniProt P06239); conditions: cited from earlier work
[1] = system: Flu-specific (MP58-66) CTL; assay: CTL apoptosis induced by peptide/MHC multimeric beads; type: cell-based, human; conditions: IL-2 20 U/ml, anti-CD28 1 μg/ml, z-VAD 10 μM; 12 hrs
A2+ B cell targets = assay: Gag-specific CTL assay, apoptosis of peptide-pulsed targets (Annexin-V); conditions: peptide-pulsed BCL, 12-hour incubation, FIG. 1b

CD8-associated p56lck, sequence (P06239 whole entry): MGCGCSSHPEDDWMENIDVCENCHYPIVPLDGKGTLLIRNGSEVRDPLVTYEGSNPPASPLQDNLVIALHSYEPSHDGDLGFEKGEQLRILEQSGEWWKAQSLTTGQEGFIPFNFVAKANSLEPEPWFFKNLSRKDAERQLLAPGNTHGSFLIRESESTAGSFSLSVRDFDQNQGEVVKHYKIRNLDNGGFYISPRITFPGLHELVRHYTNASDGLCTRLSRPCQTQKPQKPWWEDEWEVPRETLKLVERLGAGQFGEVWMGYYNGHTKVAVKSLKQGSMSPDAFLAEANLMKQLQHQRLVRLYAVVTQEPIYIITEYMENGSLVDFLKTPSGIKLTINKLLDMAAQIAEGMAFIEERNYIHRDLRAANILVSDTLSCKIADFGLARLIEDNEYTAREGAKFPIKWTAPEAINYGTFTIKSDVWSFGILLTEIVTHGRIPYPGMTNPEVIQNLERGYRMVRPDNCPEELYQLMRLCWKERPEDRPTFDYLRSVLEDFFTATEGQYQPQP

## CO[C@H]1[C@@H](OC)C[C@H](C)[C@@H](OC)C2=CC(=O)C=C(NC(=O)/C(C)=C/C=C\[C@H](OC)[C@@H](OC(N)=O)/C(C)=C/[C@@H]1C)C2=O [herbimycin A]
CD8-associated p56lck
  effect on FasL-mediated cytotoxicity: little effect

## CC(NC(=O)C(NC(=O)OCc1ccccc1)C(C)C)C(=O)NC(CC(=O)O)C(=O)CF (stereo not drawn) [z-VAD] (Cbz-Val-Ala-Asp-CH2F; configuration not given here)
[1]
  effect of added reagent on multimer-induced CTL death: blocked

## SLFNTVATL [Mutant 3F]
A2+ B cell targets
  target cell death, gag variant peptides: sensitising
